Experimental data as given in ChEMBL document CHEMBL1201862, “PubChem BioAssay data set” (2004).
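Grown in 96-well plates, cells were treated for 48 hours with each compound at five concentrations. Insufficient inhibition: endpoint recorded as highest concentration tested. GI50 is the concentration that inhibits growth by half.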 Activity calls are given as the source filed them. No stated cut-off is given here; in the data, active = GI50 up to about 1.1 µM and inactive = higher.

Columns and labels:
Experiment in all cases: NCI tumour cell line growth inhibition, 48 h
SK-MEL-2 = system: SK-MEL-2
SF-268 = system: SF-268
OVCAR-3 = system: OVCAR-3
RPMI-8226 = system: RPMI-8226
U-251 = system: U-251
K562 = system: K562
UACC-62 = system: UACC-62
NCI-H226 = system: NCI-H226
HT-29 = system: HT-29
UACC-257 = system: UACC-257
SNB-19 = system: SNB-19
NCI-H460 = system: NCI-H460
TK-10 = system: TK-10
LOX IMVI = system: LOX IMVI
BT-549 = system: BT-549
HL-60 = system: HL-60
T47D = system: T47D

SMILES	GI50 (SK-MEL-2)	GI50 (SF-268)	GI50 (OVCAR-3)	GI50 (RPMI-8226)	GI50 (U-251)	GI50 (K562)	GI50 (UACC-62)	GI50 (NCI-H226)	GI50 (HT-29)	GI50 (UACC-257)	GI50 (SNB-19)	GI50 (NCI-H460)	GI50 (TK-10)	GI50 (LOX IMVI)	GI50 (BT-549)	GI50 (HL-60)	GI50 (T47D)
CC(Cc1ccc(O)cn1)(NC(=O)c1ccccc1)C(=O)O (stereo not drawn)	> 100 µM (inactive)	> 100 µM (inactive)	> 100 µM (inactive)	> 100 µM (inactive)	> 100 µM (inactive)	> 100 µM (inactive)	> 100 µM (inactive)	> 100 µM (inactive)	> 100 µM (inactive)	> 100 µM (inactive)	> 100 µM (inactive)	> 100 µM (inactive)	> 100 µM (inactive)	> 100 µM (inactive)	> 100 µM (inactive)	> 100 µM (inactive)	–
O=C1C2CCCCC2C(=O)N1n1c(Cc2ccccc2)n[nH]c1=O (stereo not drawn)	> 100 µM (inactive)	> 100 µM (inactive)	> 100 µM (inactive)	> 100 µM (inactive)	> 100 µM (inactive)	> 100 µM (inactive)	> 100 µM (inactive)	> 100 µM (inactive)	> 100 µM (inactive)	> 100 µM (inactive)	> 100 µM (inactive)	> 100 µM (inactive)	> 100 µM (inactive)	> 100 µM (inactive)	> 100 µM (inactive)	–	> 100 µM (inactive)
O=C(CSCC(=O)N/N=C\c1cc(Br)cc(Br)c1O)N/N=C\c1cc(Br)cc(Br)c1O	9.55 µM (inactive)	11.3 µM (inactive)	17.6 µM (inactive)	–	4.28 µM (inactive)	21.9 µM (inactive)	18 µM (inactive)	17.7 µM (inactive)	39.6 µM (inactive)	23.5 µM (inactive)	65.6 µM (inactive)	44.6 µM (inactive)	15.6 µM (inactive)	6.68 µM (inactive)	37.4 µM (inactive)	–	32.1 µM (inactive)
CC(C)C1=CC23CCC4C(C)(C(=O)O)CCCC4(C)C2CC1C1C(=O)N(c2ccccc2N2C(=O)C4C5CC6C7(C)CCCC(C)(C(=O)O)C7CCC6(C=C5C(C)C)C4C2=O)C(=O)C13 (stereo not drawn)	12.2 µM (inactive)	3.09 µM (inactive)	10.9 µM (inactive)	7.64 µM (inactive)	3.16 µM (inactive)	6.58 µM (inactive)	–	12.1 µM (inactive)	3.32 µM (inactive)	–	4.79 µM (inactive)	–	13.1 µM (inactive)	–	–	6.38 µM (inactive)	19.9 µM (inactive)
CC1(C)CC(=O)C2=C(C1)NC(SCC(=O)O)=C(C#N)C2c1ccc(Br)cc1 (stereo not drawn)	> 100 µM (inactive)	> 100 µM (inactive)	> 100 µM (inactive)	–	> 100 µM (inactive)	–	> 100 µM (inactive)	> 100 µM (inactive)	> 100 µM (inactive)	> 100 µM (inactive)	> 100 µM (inactive)	> 100 µM (inactive)	> 100 µM (inactive)	> 100 µM (inactive)	> 100 µM (inactive)	> 100 µM (inactive)	–
CC(C)(C)C1CC[C@H](O)[C@H]([C@@H](O)CC2CC(=O)N(c3ccccc3)C(=O)C2)C1 (stereo partly drawn)	–	> 100 µM (inactive)	50.9 µM (inactive)	46.2 µM (inactive)	55.8 µM (inactive)	54.1 µM (inactive)	26.6 µM (inactive)	> 100 µM (inactive)	23.1 µM (inactive)	89.9 µM (inactive)	> 100 µM (inactive)	44.2 µM (inactive)	> 100 µM (inactive)	49.3 µM (inactive)	29.4 µM (inactive)	28.1 µM (inactive)	–
CC(C)(C)OC(=O)C1CC[C@@H](CC(=O)Oc2ccc([N+](=O)[O-])cc2)N1 (stereo partly drawn)	> 100 µM (inactive)	–	> 100 µM (inactive)	> 100 µM (inactive)	> 100 µM (inactive)	–	> 100 µM (inactive)	> 100 µM (inactive)	–	> 100 µM (inactive)	> 100 µM (inactive)	> 100 µM (inactive)	> 100 µM (inactive)	> 100 µM (inactive)	–	> 100 µM (inactive)	–
COC(=O)/C=C1\C(CO[Si](C)(C)C(C)(C)C)OC(n2cc(C)c(=O)n(C)c2=O)C1O[Si](C)(C)C(C)(C)C (stereo not drawn)	> 100 µM (inactive)	> 100 µM (inactive)	> 100 µM (inactive)	78 µM (inactive)	81.7 µM (inactive)	> 100 µM (inactive)	> 100 µM (inactive)	> 100 µM (inactive)	> 100 µM (inactive)	–	> 100 µM (inactive)	–	> 100 µM (inactive)	89.5 µM (inactive)	–	–	–
COc1ccc(-c2c(C#N)c(O)n(NS(=O)(=O)c3ccc(C)cc3)c(=O)c2C#N)cc1	> 100 µM (inactive)	> 100 µM (inactive)	–	19.5 µM (inactive)	67.8 µM (inactive)	–	81.7 µM (inactive)	> 100 µM (inactive)	> 100 µM (inactive)	> 100 µM (inactive)	83.2 µM (inactive)	46.2 µM (inactive)	79.3 µM (inactive)	45.4 µM (inactive)	54.8 µM (inactive)	37.1 µM (inactive)	–
O=C1c2cc(Cl)ccc2N=C(NCCCl)C2CSCN12 (stereo not drawn)	> 100 µM (inactive)	> 100 µM (inactive)	> 100 µM (inactive)	> 100 µM (inactive)	> 100 µM (inactive)	70.1 µM (inactive)	> 100 µM (inactive)	> 100 µM (inactive)	> 100 µM (inactive)	> 100 µM (inactive)	> 100 µM (inactive)	> 100 µM (inactive)	> 100 µM (inactive)	> 100 µM (inactive)	> 100 µM (inactive)	–	> 100 µM (inactive)
O=C1CCC2c3ccccc3NCN12 (stereo not drawn)	> 100 µM (inactive)	> 100 µM (inactive)	> 100 µM (inactive)	> 100 µM (inactive)	> 100 µM (inactive)	> 100 µM (inactive)	> 100 µM (inactive)	> 100 µM (inactive)	> 100 µM (inactive)	> 100 µM (inactive)	> 100 µM (inactive)	> 100 µM (inactive)	> 100 µM (inactive)	> 100 µM (inactive)	–	> 100 µM (inactive)	> 100 µM (inactive)
CCC(C)c1cnc(CC(C)C)c(=O)[nH]1 (stereo not drawn)	> 100 µM (inactive)	> 100 µM (inactive)	> 100 µM (inactive)	> 100 µM (inactive)	> 100 µM (inactive)	> 100 µM (inactive)	> 100 µM (inactive)	–	> 100 µM (inactive)	> 100 µM (inactive)	> 100 µM (inactive)	> 100 µM (inactive)	> 100 µM (inactive)	> 100 µM (inactive)	> 100 µM (inactive)	–	> 100 µM (inactive)
O=C(Cc1ccccc1)N/N=C(/CCN1CCCC1)CC(c1ccccc1)c1c(O)c2ccccc2oc1=O (stereo not drawn)	> 100 µM (inactive)	> 100 µM (inactive)	> 100 µM (inactive)	39.7 µM (inactive)	> 100 µM (inactive)	> 100 µM (inactive)	63.7 µM (inactive)	> 100 µM (inactive)	75.9 µM (inactive)	37.2 µM (inactive)	> 100 µM (inactive)	–	> 100 µM (inactive)	17.3 µM (inactive)	83.4 µM (inactive)	39.8 µM (inactive)	–
COC(=O)c1sc(=S)sc1SCc1ccccc1CSc1sc(=S)sc1C(=O)OC	> 100 µM (inactive)	> 100 µM (inactive)	> 100 µM (inactive)	–	> 100 µM (inactive)	38.5 µM (inactive)	> 100 µM (inactive)	> 100 µM (inactive)	> 100 µM (inactive)	> 100 µM (inactive)	77.1 µM (inactive)	> 100 µM (inactive)	> 100 µM (inactive)	> 100 µM (inactive)	> 100 µM (inactive)	–	–
C/C(=N\Nc1nc2ccccc2s1)c1ccncn1	8.09 µM (inactive)	0.603 µM (active)	0.366 µM (active)	1 µM (active)	1.3 µM (inactive)	0.973 µM (active)	1.44 µM (inactive)	0.14 µM (active)	0.0311 µM (active)	0.719 µM (active)	3.02 µM (inactive)	0.438 µM (active)	–	–	4.15 µM (inactive)	–	0.612 µM (active)
C/C=C/C(C#N)(/C=C/c1ccccc1)OP1(=O)OC(c2ccccc2)C(C)N1C (stereo not drawn)	18.6 µM (inactive)	19.6 µM (inactive)	19.5 µM (inactive)	15.2 µM (inactive)	17.2 µM (inactive)	16.4 µM (inactive)	17.7 µM (inactive)	–	19.7 µM (inactive)	19.1 µM (inactive)	20.7 µM (inactive)	17.9 µM (inactive)	19.9 µM (inactive)	18.2 µM (inactive)	–	12.6 µM (inactive)	20.7 µM (inactive)
CCCCCCC1OC23OC1CCC2C(O)CCC3O (stereo not drawn)	> 100 µM (inactive)	> 100 µM (inactive)	> 100 µM (inactive)	> 100 µM (inactive)	> 100 µM (inactive)	> 100 µM (inactive)	> 100 µM (inactive)	> 100 µM (inactive)	> 100 µM (inactive)	> 100 µM (inactive)	> 100 µM (inactive)	> 100 µM (inactive)	> 100 µM (inactive)	> 100 µM (inactive)	> 100 µM (inactive)	> 100 µM (inactive)	–
O=C1CC2(CCCc3sccc32)C(=O)N1 (stereo not drawn)	> 100 µM (inactive)	> 100 µM (inactive)	> 100 µM (inactive)	> 100 µM (inactive)	> 100 µM (inactive)	> 100 µM (inactive)	> 100 µM (inactive)	> 100 µM (inactive)	> 100 µM (inactive)	> 100 µM (inactive)	> 100 µM (inactive)	> 100 µM (inactive)	> 100 µM (inactive)	> 100 µM (inactive)	–	> 100 µM (inactive)	> 100 µM (inactive)
